Results published in patent US20260335282A1, “NOVEL 3-ARYLIDENE-2-INDOLINONE DERIVATIVES FOR THERAPEUTIC USE” (ISTANBUL UNIVERSITESI REKTORLUGU, priority 2022, published 2026).
Entries after “also recorded” stand apart in the source; their conditions may differ.

Columns and labels:
[1] = test system: general tyrosine kinase activity in A498 kidney cancer cells; test: General tyrosine kinase activity (ELISA) in A498 cells; type: cell-based, human; conditions: IC50 concentration
Protocol: (§1) Takara Universal Tyrosine Kinase Assay Kit is used to determine the effects of 11 2-indolinone compounds (Y1, Y2, Y3, Y4, Y5, Y8, […], […], Y21, Y23, 20C, 22C) on general tyrosine kinase activity in cancer cells. Cells are seeded in 6-well plates (4.10^5 cells/well) and the IC50 concentration of each selected molecule is performed to the cells for 48 or 72 hours. Cells in the control group are incubated with medium only. At the end of the incubation period, the cells in each well are washed with PBS and cells are removed from the wells using a cell scraper via 1 ml of the extraction buffer in the kit. The cell lysate is transferred to ependorf tubes and centrifuged at 10.000 g for 10 minutes at +4° C. and the supernatant is used as a sample for activity determination. After the extracts obtained from the control and experimental groups are diluted 1:25, 40 μl extracts is transferred to two wells in the 96-well plate in the kit. In addition, the standard solution in the kit is diluted according to the kit instructions and each concentration is transferred 40 μl into three wells. 10 μl of 40 mM ATP-2Na solution is added to all wells and the plate is incubated at 37° C. for 30 minutes. […] The reaction is finished by adding 100 μl of stop solution to each well and the optical density in each well is measured at 405 nm with a microplate reader (BioTek, USA). The tyrosine kinase activity in each sample is calculated from the standard curve obtained from the absorbance values of the standard solutions with the kit (Chan W Y, Lau P M, Yeung K W, Kong S K. The second generation tyrosine kinase inhibitor dasatinib induced eryptosis in human erythrocytes—An in vitro study. Toxicol Lett. 2018; 295:10-21). […]
The effects of 11 2-indolinone compounds (Y1, Y2, Y3, Y4, Y5, Y8, Y14, Y21, Y23, 20C and 22C) having the structure of formula (5), which are prominent with their cytotoxicity in A498, MIAPaCa-2 and HCT-116 cancer cell lines and nontoxic properties in healthy cells, on general tyrosine kinase activity in cancer cells are determined.

[2] = test system: A498 cells; test: Apoptosis/necrosis detection, Annexin V/PI flow cytometry, A498; type: cell-based, human
Protocol: After incubation with 2-indolinone compounds (IC50 μM concentration; 48 and/or 72 hours), cells are washed twice with PBS and the cell pellet is suspended in Annexin V binding buffer. After this incubation, cells are incubated with FITC-conjugated Annexin V and propidium iodine staining solution for 15 minutes in the dark and at room temperature. Then, cells are analyzed by flow cytometry (Beckman coulter, Navios) (Wlodkowic, D., Skommer, J, Darzynkiewicz, Z. 2009. Flow cytometry-based apoptosis detection, Methods Mol Biol., 559, 1-14).

[3] = test system: general tyrosine kinase activity in HCT116 colon cancer cells; test: General tyrosine kinase activity (ELISA) in HCT-116 cells; type: cell-based, human; conditions: 72 hours, IC50 concentration
Protocol: as §1, with “determination.” for “determination. After the extracts obtained from the control and experimental groups are diluted 1:25, 40 μl extracts is transferred to two wells in the 96-well plate in the kit. In addition, the standard solution in the kit is diluted according to the kit instructions and each concentration is transferred 40 μl into three wells. 10 μl of 40 mM ATP-2Na solution is added to all wells and the plate is incubated at 37° C. for 30 minutes.”

[4] = test system: human cancer cells; test: MTT cell viability, human cancer cells overall; type: cell-based; conditions: cell line as discussed at the place
Excerpt: The cytotoxicity, general tyrosine kinase inhibitory effects and cell death (apoptosis/necrosis) assays of 1-benzyl-3-(1H-indol-3-ylmethylidene)-1,3-dihydro-2H-indol-2-one derivatives (Formula 5) of the present invention are studied by the following methods. […] HUVEC (human umbilical vein endothelial cell), MCF-10F (human breast epithelial cell) and Beas2b (human lung bronchial epithelial cell) cell lines have been used as healthy control cells in MTT experiments.
Beas2b (human lung bronchiole epithelial cell) and HEK293 (renal tubule epithelium) cells used as normal cell lines were cultured in RPMI medium, and HUVEC (human umbilical cord endothelial cells) and MCF-10F (human breast epithelial cell) cells are cultured in DMEM medium containing 100 µg/ml penicillin/streptomycin. The cells, which covered 70% of the culture flask, are washed with phosphate buffer and then removed from the surface of the flask by application of trypsin-ethylenediamine tetraacetic acid (Trypsin-EDTA; 0.25%) solution, passaged, counted and seeded on appropriate plates before each experiment. Cells are treated with a total of 45 2-indolinone compounds (5) at concentrations of 0.1, 1, 5 and 10 μM. Stock compounds are prepared in 1 ml dimethylsulfoxide (DMSO) and 4 different dilutions were prepared with medium and performed to the cells. Control group cells are treated with DMSO at a similar concentration to the experimental groups.
MTT (3-(4,5-dimethylthiazol-2-yl)-2,5-diphenyl-2H-tetrazolium bromide) colorimetric assay provides quantitation of viable cells with ongoing mitochondrial activity in culture medium. According to the standard procedure in cell culture conditions, cells are maintained in RPMI-1640 and DMEM culture media containing 10% FBS and 1% penicillin/streptomycin. The trypan blue test is used for cell counts.
The effects of 45 2-indolinone compounds (5) on cell viability in all cancer cell lines are investigated by MTT assay. Cells are seeded in a 96-well flat bottom plate with 5000 cells in each well and 2-indolinone compounds (5) at concentrations of 0.1, 1, 5 and 10 μM are performed to the cells the next day. After 48 and/or 72 hours following treatment with 2-indolinone compounds, 50 μl of the supernatant is slowly discarded (as it was acid medium) and MTT at a concentration of 5 mg/ml is added to each well in a volume of 10 μl. After incubation for 4 hours, the formazan crystals formed in the wells are dissolved by adding 100 μl DMSO and the optical density is read at 570 nm test wavelength and 630 nm reference wavelength. Cell viability is expressed as % cell viability by comparing the absorbance of control and test wells. IC50 value is calculated from the dose-response curves prepared for each compound. In addition, the possible DMSO effect is eliminated by preparing negative control wells compatible with the amount of DMSO contained in the compounds. To understand the reaction of the compounds with MTT, cell-free (MTT+compounds) negative controls are prepared at the concentrations used (Mosmann, 1983). […] The absorbance values obtained are compared to the control and statistically evaluated by unpaired t-test using “Graphpad Prism 5.04” software. “P<0.05” is accepted as significant. When evaluating cytotoxic effects, the present inventors aim for the inventive compounds to be effective in cancer cells and ineffective in healthy cells. […]

Compound: Cc1ccc2c(c1)/C(=C/c1c[nH]c3ccccc13)C(=O)N2Cc1ccccc1 [Y3]
- general tyrosine kinase activity compared to control ([1]; 48 h): significantly decreased; also recorded: decreased the general tyrosine kinase activity
- necrosis compared to control ([2]; A498): no increase or decrease; also recorded: did not cause necrosis
- Apoptosis rate compared to control ([2]; A498, IC50 concentration): increased significantly

Compound: Cc1ccc2c(c1)/C(=C/c1c[nH]c3ccccc13)C(=O)N2Cc1cccc(F)c1 [Y8]
- general tyrosine kinase activity compared to control ([1]; 72 h): did not cause a significant change

Compound: O=C1/C(=C\c2c[nH]c3ccccc23)c2cc(OC(F)(F)F)ccc2N1Cc1ccccc1 [Y4]
- tyrosine kinase activity compared to control [3]: did not cause a significant change
- potency/selectivity compared with sunitinib malate [4]: more potent than Sunitinib malate
